Measured values reported in EP4800016A1, “METTL3 INHIBITOR” (Hangzhou Bangshun Pharmaceutical Co., Ltd., priority 2023, dated 2025).

Molecular target: T1, METTL3/14 (Homo sapiens, UniProt Q86U44)
T1 construct: purchased active motif 31570
Assay: METTL3/14 methyltransferase activity assay (HTRF)
Assay type: biochemical
Details: 10 concentrations, 3-fold dilution from 10 µM
Method: The final initial concentration of the compound was 10 µM, with 3-fold serial dilution to give a total of 10 concentrations. 100 nL of the compound was transferred to a 384-well plate and centrifuged at 1000 RPM. 2.5 µL of METTL3/14 (active motif, Cat No. 31570) was added to the test wells and incubated at 25°C for 10 min. 2.5 µL of METTL3-Biotin & SAM (GenScript) was added to the test wells andincubated at 25°C for 60 min. 2.5 µL of YTHDF1 (active motif, Cat No. 31608) was added to the test wells and centrifuged at 1000 RPM. 2.5 µL of Streptavidin-Tb (Perkin Elmer Cat No. 61SATLB) & Flag-mede (Perkin Elmer Cat No. 61FG2DLA) was added to the test wells and centrifuged at 1000 RPM. Incubated at 25°C for 60 min. HTRF was measured using a Plate reader. The results of each compound are shown in Table 1, where A+indicates <10nM, A indicates 10-100nM, B indicates 100-1000nM, and C indicates >1000nM.

T1 sequence (Q86U44 whole entry): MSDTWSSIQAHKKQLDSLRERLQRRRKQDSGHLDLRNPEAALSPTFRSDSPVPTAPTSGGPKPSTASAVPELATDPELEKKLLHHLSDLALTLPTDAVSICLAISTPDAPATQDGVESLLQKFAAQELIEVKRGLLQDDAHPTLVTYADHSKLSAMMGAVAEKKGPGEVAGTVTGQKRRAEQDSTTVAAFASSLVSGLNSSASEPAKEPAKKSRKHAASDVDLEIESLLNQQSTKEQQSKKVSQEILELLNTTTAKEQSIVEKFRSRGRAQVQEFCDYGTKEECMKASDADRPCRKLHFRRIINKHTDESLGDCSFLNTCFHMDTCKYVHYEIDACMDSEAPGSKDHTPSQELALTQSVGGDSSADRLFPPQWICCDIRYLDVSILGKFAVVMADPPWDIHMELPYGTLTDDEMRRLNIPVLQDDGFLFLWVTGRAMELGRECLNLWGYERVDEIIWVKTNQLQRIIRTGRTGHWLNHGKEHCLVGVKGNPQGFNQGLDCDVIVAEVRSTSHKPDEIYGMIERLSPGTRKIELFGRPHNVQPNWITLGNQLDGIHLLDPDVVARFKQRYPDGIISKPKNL
T1 sequence (Q9HCE5 whole entry partner): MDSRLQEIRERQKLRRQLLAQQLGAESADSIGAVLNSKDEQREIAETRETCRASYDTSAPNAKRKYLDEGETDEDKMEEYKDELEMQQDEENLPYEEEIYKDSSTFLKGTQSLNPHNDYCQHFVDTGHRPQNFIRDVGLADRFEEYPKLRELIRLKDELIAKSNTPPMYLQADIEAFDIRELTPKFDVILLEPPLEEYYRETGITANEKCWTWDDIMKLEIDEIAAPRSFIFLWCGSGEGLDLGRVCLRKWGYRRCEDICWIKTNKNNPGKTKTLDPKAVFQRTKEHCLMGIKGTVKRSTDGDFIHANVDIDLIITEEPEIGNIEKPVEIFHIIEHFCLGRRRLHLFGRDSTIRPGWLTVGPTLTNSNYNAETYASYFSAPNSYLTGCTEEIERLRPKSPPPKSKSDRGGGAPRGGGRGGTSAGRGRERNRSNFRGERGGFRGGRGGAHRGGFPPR

| IC50 [nM] | SMILES |
| --- | --- |
| < 10 | COC1(CNCc2cc3ccc(CNC(=O)c4cc(=O)n5cc6c(cc5n4)OCO6)cc3[nH]2)CCC1 [Example 83, N-((2-((((1-Methoxycyclobutyl)methyl)amino)methyl)-1H-indol-6-yl)methyl)-8-oxo-8H-[1,3]dioxolo[2',3':4,5]pyrido[1,2-a]pyrimidine-6-carboxamide] |
| 10 to 100 | O=C(NCc1ccc2cc(CNCc3ccc(F)s3)[nH]c2c1)c1cc(=O)n2cc3c(cc2n1)OCO3 [Example 82, N-((2-((((5-Fluorothiophen-2-yl)methyl)amino)methyl)-1H-indol-6-yl)methyl)-8-oxo-8H-[1,3]dioxolo[2',3':4,5]pyrido[1,2-a]pyrimidine-6-carboxamide] |
| 10 to 100 | O=C(NCc1ccc2cc(CNCC3CCC3)[nH]c2c1)c1cc2ncccn2n1 [Example 2, N-((2-(((Cyclobutylmethyl)amino)methyl)-1H-indol-6-yl)methyl)pyrazolo[1,5-a]pyrimidine-2-carboxamide] |
| 100 to 1000 | O=C(NCc1cc2ccc(CNCC3CCC3)cc2[nH]1)c1cc(=O)n2ccccc2n1 [Example 21, N-((6-(((Cyclobutylmethyl)amino)methyl)-1H-indol-2-yl)methyl)-4-oxo-4H-pyrido[1,2-a]pyrimidine-2-carboxamide] |
| 10 to 100 | O=C(NCc1cc2[nH]c(CNCC3CCC3)cc2s1)c1cc(=O)n2cc3c(cc2n1)OCCO3 [Example 31, N-((5-(((cyclobutylmethyl)amino)methyl)-4H-thieno[3,2-b]pyrrol-2-yl)methyl)-9-oxo-2,3-dihydro-9H-[1,4]dioxino[2',3':4,5]pyrido[1,2-a]pyrimidine-7-carboxamide] |
| 10 to 100 | O=C(NCc1ccc2cc(CNCC3(C(F)(F)F)CCC3)[nH]c2c1)c1cc(=O)n2cc3c(cc2n1)OCO3 [Example 56, 8-Oxo-N-((2-((((1-(trifluoromethyl)cyclobutyl)methyl)amino)methyl)-1H-indol-6-yl)methyl)-8H-[1,3]dioxolo[4',5':4,5]pyrido[1,2-a]pyrimidine-6-carboxamide] |
| 10 to 100 | COc1ccc(CNc2nc(C(=O)NCc3ccc4cc(CNCC5CCC5)[nH]c4c3)cn3nccc23)cc1 [Example 14, N-((2-(((Cyclobutylmethyl)amino)methyl)-1H-indol-6-yl)methyl)-4-((4-methoxybenzyl)amino)pyrazolo[1,5-a]pyrazine-6-carboxamide] |
| 10 to 100 | O=C(NCc1ccc2cc(CN3CCC(F)(F)CC3)[nH]c2c1)c1cc(=O)n2cc3c(cc2n1)OCCO3 [Example 27] |
| 10 to 100 | O=C(NCc1ccc2cc(CNCC3(C(F)(F)F)CC3)[nH]c2c1)c1cc(=O)n2cc3c(cc2n1)OCO3 [Example 40, 8-Oxo-N-((2-((((1-(trifluoromethyl)cyclopropyl)methyl)amino)methyl)-1H-indol-6-yl)methyl)-8H-[1,3]dioxolo[4',5':4,5]pyrido[1,2-a]pyrimidine-6-carboxamide] |
| 100 to 1000 | O=C(NCc1ccc2cc(CNCC3CCC3)[nH]c2c1)c1cn2nccc2c(N2CCCC2)n1 [Example 15, N-((2-(((Cyclobutylmethyl)amino)methyl)-1H-indol-6-yl)methyl)-4-(pyrrolidin-1-yl)pyrazolo[1,5-a]pyrazine-6-carboxamide] |
| 100 to 1000 | O=C(NCc1ccc2cc(CNCC3CCC3)[nH]c2c1)c1cn2nccc(N3CCOCC3)c2n1 [Example 8, N-((2-(((Cyclobutylmethyl)amino)methyl)-1H-indol-6-yl)methyl)-8-morpholinoimidazo[1,2-b]pyridazine-2-carboxamide] |
| 10 to 100 | O=C(NCc1ccc2cc(CNCc3ccc(F)s3)[nH]c2c1)c1cc(=O)n2cc3c(cc2n1)OCCO3 [Example 76, N-((2-((((5-fluorothiophen-2-yl)methyl)amino)methyl)-1H-indol-6-yl)methyl)-9-oxo-2,3-dihydro-9H-[1,4]dioxino[2',3':4,5]pyrido[1,2-a]pyrimidin-7-carboxamide] |
| 10 to 100 | O=C(NCc1ccc2cc(CNCC3CCC3)[nH]c2c1)c1cnn2cccnc12 [Example 3, N-((2-(((Cyclobutylmethyl)amino)methyl)-1H-indol-6-yl)methyl)pyrazolo[1,5-a]pyrimidine-3-carboxamide] |
| 10 to 100 | O=C(NCc1ccc2cc(CNCC3CCC3)[nH]c2c1)c1cc(=O)n2cc3c(cc2n1)OC(F)(F)O3 [Example 30, N-((2-(((Cyclobutylmethyl)amino)methyl)-1H-indol-6-yl)methyl)-2,2-difluoro-8-oxo-8H-[1,3]dioxolo[4',5':4,5]pyrido[1,2-a]pyrimidine-6-carboxamide] |
| 10 to 100 | O=C(NCc1ccc2cc(CNC3CC(F)(F)C3)[nH]c2c1)c1cc(=O)n2cc3c(cc2n1)OCO3 [Example 39, N-((2-(((3,3-Difluorocyclobutyl)amino)methyl)-1H-indol-6-yl)methyl)-8-oxo-8H-[1,3]dioxolo[4',5':4,5]pyrido[1,2-a]pyrimidine-6-carboxamide] |
| 10 to 100 | CNc1nc(C(=O)NCc2ccc3cc(CNCC4CCC4)[nH]c3c2)cn2nccc12 [Example 13, N-((2-(((Cyclobutylmethyl)amino)methyl)-1H-indol-6-yl)methyl)-4-(methylamino)pyrazolo[1,5-a]pyrazine-6-carboxamide] |
| 10 to 100 | O=C(NCc1c(F)cc2cc(CNCC3CCC3)[nH]c2c1F)c1cc(=O)n2cc3c(cc2n1)OCO3 [Example 75, N-((2-(((Cyclobutylmethyl)amino)methyl)-5,7-difluoro-1H-indol-6-yl)methyl)-8-oxo-8H-[1,3]dioxolo[4',5':4,5]pyrido[1,2-a]pyrimidine-6-carboxamide] |
| 100 to 1000 | O=C(NCc1ccc2cc(CNCC3CCC3)[nH]c2c1)c1cn2ncc3c2c(n1)OCCO3 [Example 61, N-((2-(((Cyclobutylmethyl)amino)methyl)-1H-indol-6-yl)methyl)-7,8-dihydro-6,9-dioxa-2,2a,5-triazabenzo[cd]azulene-4-carboxamide] |
| 100 to 1000 | O=C(NC1(c2ccc3cc(CNCC4CCC4)[nH]c3c2)CC1)c1cc(=O)n2cc3c(cc2n1)OCO3 [Example 42, N-(1-(2-(((Cyclobutylmethyl)amino)methyl)-1H-indol-6-yl)cyclopropyl)-8-oxo-8H-[1,3]dioxolo[4',5':4,5]pyrido[1,2-a]pyrimidine-6-carboxamide] |
| 10 to 100 | O=C(NCc1ccc2cc(CNC3CCC(F)(F)CC3)[nH]c2c1)c1cc(=O)n2cc3c(cc2n1)OCO3 [Example 37, N-((2-(((4,4-Difluorocyclohexyl)amino)methyl)-1H-indol-6-yl)methyl)-8-oxo-8H-[1,3]dioxolo[4',5':4,5]pyrido[1,2-a]pyrimidine-6-carboxamide] |
| < 10 | O=C(NCc1cc2[nH]c(CNCC34CC(F)(C3)C4)cc2cc1F)c1cc(=O)n2cc3c(cc2n1)OCO3 [Example 74, N-((5-fluoro-2-((((3-fluorobicyclo[1.1.1]pentan-1-yl)methyl)amino)methyl)-1H-indol-6-yl)methyl)-8-oxo-8H-[1,3]dioxolo[4',5':4,5]pyrido[1,2-a]pyrimidine-6-carboxamide] |
| < 10 | O=C(NCc1ccc2cc(CNCC34CCCC3C4)[nH]c2c1)c1cc(=O)n2cc3c(cc2n1)OCO3 (stereo not shown) [Example 60, N-((2-(((Bicyclo[3.1.0]hexan-1-ylmethyl)amino)methyl)-1H-indol-6-yl)methyl)-8-oxo-8H-[1,3]dioxolo[4',5':4,5]pyrido[1,2-a]pyrimidine-6-carboxamide] |
| 10 to 100 | COC1(CNCc2cc3ccc(CNC(=O)c4cc(=O)n5cc6c(cc5n4)OCCO6)cc3[nH]2)CCC1 [Example 80, N-((2-((((1-Methoxycyclobutyl)methyl)amino)methyl)-1H-indol-6-yl)methyl)-9-oxo-2,3-dihydro-9H-[1,4]dioxino[2',3':4,5]pyrido[1,2-a]pyrimidine-7-carboxamide] |
| 10 to 100 | O=C(NCc1ccc2cc(CNCC3CC4(CCC4)C3)[nH]c2c1)c1cc(=O)n2cc3c(cc2n1)OCO3 [Example 58, 8-Oxo-N-((2-(((spiro[3.3]heptan-2-ylmethyl)amino)methyl)-1H-indol-6-yl)methyl)-8H-[1,3]dioxolo[4',5':4,5]pyrido[1,2-a]pyrimidine-6-carboxamide] |
| 10 to 100 | O=C(NCc1ccc2cc(CN3CCc4ccccc4C3)[nH]c2c1)c1cc(=O)n2cc3c(cc2n1)OCO3 [Example 34, N-((2-((3,4-dihydroisoquinolin-2(1H)-yl)methyl)-1H-indol-6-yl)methyl)-8-oxo-8H-[1,3]dioxolo[4',5':4,5]pyrido[1,2-a]pyrimidine-6-carboxamide] |
| 100 to 1000 | O=C(NCc1ccc2cc(CNCC3CC(=C(F)F)C3)[nH]c2c1)c1cc(=O)n2cc3c(cc2n1)OCCO3 (stereo not shown) [Example 28, N-((2-((((3-(Difluoromethylene)cyclobutyl)methyl)amino)methyl)-1H-indol-6-yl)methyl)-9-oxo-2,3-dihydro-9H-[1,4]dioxino[2',3':4,5]pyrido[1,2-a]pyrimidine-7-carboxamide] |
| 100 to 1000 | CN1CCOc2cnn3cc(C(=O)NCc4ccc5cc(CNCC6CCC6)[nH]c5c4)nc1c23 [Example 59, N-((2-(((Cyclobutylmethyl)amino)methyl)-1H-indol-6-yl)methyl)-6-methyl-7,8-dihydro-6H-9-oxa-2,2a,5,6-tetraazabenzo[cd]azulene-4-carboxamide] |
| < 10 | [2H]C([2H])(NCC1CCC1)c1cc2ccc(CNC(=O)c3cc(=O)n4cc5c(cc4n3)OCO5)cc2[nH]1 [Example 62, N-((2-(((cyclobutylmethyl)amino)methyl-d2)-1H-indol-6-yl)methyl)-8-oxo-8H-[1,3]dioxolo[4',5':4,5]pyrido[1,2-a]pyrimidine-6-carboxamide] |
